What was measured:
NF-κB p65 = target: T1, NF-κB p65 (Homo sapiens, UniProt Q04206); assay: Intracellular p65-NF-κB ELISA (DNA-binding activity); format: cell-based
T1 construct: endogenous in cells; host or cells: THP1-Blue NF-κB cells
From the text: To determine NF-κB p65 transcription factor levels by enzyme-linked immunosorbent assay (ELISA), an assay kit was used (Abcam, ab133112, Cambridge, UK). […] The supernatants were collected and used for the determination of intracellular p65-NF-κB by ELISA.
In this assay, a specific double-stranded DNA (dsDNA) sequence containing the NF-κB p65 response element is immobilized onto the wells of a 96-well plate. NF-κB p65 present in the sample binds specifically to these response elements. Bound p65 is subsequently detected using a primary antibody specific for NF-κB p65, followed by a horseradish peroxidase (HRP)-conjugated secondary antibody. The relevant background values were subtracted from the measured values. Absorbance was measured at 450 nm using an […] 200 PRO microplate reader (Tecan, Switzerland).

CAL 27 [1] = assay: Wound healing assay; format: cell-based, human; settings: IC25 concentration, area closed
Experimental: The wound healing activity of complexes 3 and 4 was evaluated using the ibidi Culture-Insert 2 Well in a μ-dish. Cells were plated by applying 70 μL of cell suspension at a density of 50,000 cells into both wells of the Culture-Insert 2 Well and grown over the weekend. Once confluency was achieved, sterile tweezers were used to detach the Culture-Insert 2 Well from the μ-dish. The cell layer was then gently washed with PBS. Subsequently, the cell layer was treated with medium containing complex 3 or 4 at the IC25 concentration, and wound closure was observed and photographed using an inverted light microscope (0–55 h of incubation). Experiments were performed in four independent replicates.
An in vitro wound healing assay was performed to determine the effect of complex 3 or 4 on cell migration. The area of the wound bordered by a monolayer of cells was measured using ImageJ software. Wound closure was monitored from 0 to 55 h. […] Microscope images after 24 h for all cell lines, as well as 55 h, can be seen in Supplementary Figure S7. […] The stained wound healing area after 55 h is shown in Supplementary Figure S10.

HGF = assay: Colony formation assay; format: cell-based, human; settings: 24 h treatment at IC50
Experimental: (§1) Cells were seeded in six-well plates at a density of 100,000 cells per well (10,000 cells/200 μL) and grown for 24 h. […] Subsequently, cells were reseeded in new six-well plates at a density of 500 cells per well and grown for approximately 2 weeks. The cell culture medium was replaced every 2–3 days. When visible colonies appeared in the six-well plates, the culture was terminated, and the cells were washed twice with ice-cold PBS. The cells were then fixed with ice-cold methanol for 10 min and stained with 0.5% crystal violet solution for 30 min at room temperature. Experiments were performed in four independent replicates. The results were analyzed using the ImageJ plugin ColonyArea, which is optimized for standard analysis of colony formation assays. The plugin processes each well individually and determines not the number of colonies, but the area of the well covered by cells, also considering staining intensity.

TR146 = assay: Colony formation assay; format: cell-based, human; settings: TR146, 24 h treatment at IC50
Experimental: as §1

Detroit 562 = assay: Colony formation assay; format: cell-based, human; settings: Detroit 562, 24 h treatment at IC50
Experimental: as §1

FaDu = assay: Colony formation assay; format: cell-based, human; settings: 24 h treatment at IC50
Experimental: as §1

CAL 27 [2] = assay: Colony formation assay; format: cell-based, human; settings: CAL 27, 24 h treatment at IC50
Experimental: as §1

IL-6 = target: T2, IL-6 (Homo sapiens, UniProt P05231); assay: Sandwich ELISA assay IL-6; format: binding; settings: 15 μM, 500 pg/mL IL-6
T2 construct: purchased PeproTech, Thermo Fisher Scientific
T2 sequence (P05231 30-212): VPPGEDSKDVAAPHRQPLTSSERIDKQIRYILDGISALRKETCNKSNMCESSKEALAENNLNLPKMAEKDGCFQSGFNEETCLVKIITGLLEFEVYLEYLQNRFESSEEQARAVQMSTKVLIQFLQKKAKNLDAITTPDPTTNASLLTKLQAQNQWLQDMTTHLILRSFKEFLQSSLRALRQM
Experimental: Human ELISA kits for IL-6, IL-6R, and IL-8 (Sigma-Aldrich, Merck, Germany) were used to quantify cytokine levels after treatment with complex 3 or 4. Briefly, 96-well plates precoated with specific antibodies were used to capture IL-6, IL-6R, and IL-8 from samples. […] Each sample was supplemented with 500 pg/mL of IL-6/IL-6R/IL-8. Positive control wells contained only the IL-6/IL-6R/IL-8 standard (PeproTech, Thermo Fisher Scientific, Waltham, Massachusetts, USA). […] After incubation, wells were washed, and biotinylated antihuman antibodies were added, followed by washing and addition of HRP-conjugated streptavidin. Finally, the TMB substrate was added to develop a color proportional to the cytokine concentration, and the reaction was stopped with the stop solution. Absorbance was measured at 450 nm using an […] 200 PRO microplate reader (TECAN, Switzerland).

T1 sequence (Q04206 whole entry): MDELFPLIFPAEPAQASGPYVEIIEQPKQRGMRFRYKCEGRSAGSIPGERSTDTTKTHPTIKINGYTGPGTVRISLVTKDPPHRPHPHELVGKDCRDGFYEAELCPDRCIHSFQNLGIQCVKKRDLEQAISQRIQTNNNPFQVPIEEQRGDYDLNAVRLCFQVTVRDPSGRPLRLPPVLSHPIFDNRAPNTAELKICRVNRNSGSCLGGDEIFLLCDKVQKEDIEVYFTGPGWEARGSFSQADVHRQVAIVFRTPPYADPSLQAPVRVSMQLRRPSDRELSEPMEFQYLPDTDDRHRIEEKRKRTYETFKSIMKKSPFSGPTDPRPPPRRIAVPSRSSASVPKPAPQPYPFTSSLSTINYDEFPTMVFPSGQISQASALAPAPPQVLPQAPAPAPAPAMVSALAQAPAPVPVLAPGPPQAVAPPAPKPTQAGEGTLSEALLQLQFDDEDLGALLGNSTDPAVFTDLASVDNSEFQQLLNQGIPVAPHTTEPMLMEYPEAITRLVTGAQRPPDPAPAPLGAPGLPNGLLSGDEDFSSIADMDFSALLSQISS

| Compound | Reduction of NF-κB (p65) levels (NF-κB p65; 1 μM, cellular extracts of THP1-Blue NF-κB cells, LPS) | NF-κB (p65) detected in cellular extracts (NF-κB p65; 8 μM) | Wound area (%) (CAL 27 [1]; CAL 27, 24 h) | Wound area (%) (CAL 27 [1]; CAL 27, 48 h) | Wound area (%) (CAL 27 [1]; CAL 27, 55 h) | Wound area (%) (CAL 27 [1]; CAL 27, 55 h, listed as C3) | Cloning efficiency (%) (HGF) | Cloning efficiency (%) (TR146) | Cloning efficiency (%) (Detroit 562) | Cloning efficiency (%) (FaDu) | Cloning efficiency (%) (CAL 27 [2]) | Wound area (%) (CAL 27 [1]; CAL 27, 55 h, listed as C4) | Decrease of IL-6 concentration (IL-6) |
| --- | --- | --- | --- | --- | --- | --- | --- | --- | --- | --- | --- | --- | --- |
| Cc1ccc(C(C)C)cc1.Cc1ccc(C(C)C)cc1.O=C1C(=Cc2ccnc3ccccc23)COCC1=Cc1ccnc2ccccc12.[Cl][Ru][Cl].[Cl][Ru][Cl] [Complex 3] | approximately 70% | less than 5% | 10 ± 2% | 15 ± 3% | less than 20% | 16 ± 3% | 95 ± 6% | 66 ± 19% | 57 ± 8% | 73 ± 15% | 39 ± 7% | – | – |
| Cc1ccc(C(C)C)cc1.Cc1ccc(C(C)C)cc1.O=C1C(=Cc2cccnc2)CCC1=Cc1cccnc1.[Cl][Ru][Cl].[Cl][Ru][Cl] [Complex 4] | – | – | 7 ± 4% | 11 ± 3% | less than 15% | – | – | – | – | – | – | 12 ± 3% | approximately 30% |
